Source: US7598234B2, “Steroid derived antibiotics” (Brigham Young University, priority 1998, dated 2009)
Values after ≈ are worked out from the molar mass of the structure shown.

Key:
Gram-negative bacteria = assay: Sensitization to erythromycin, ester and amide side chain compounds (Table 14); format: cell-based; settings: in words; compared with Table 14 compounds
Protocol: (§1) Aliquots of 1 mL of the suspension were added to test tubes containing 1 mL TSB and incrementally varied concentrations of cholic acid derivatives and/or erythromycin or novobiocin. In the sensitization experiments, erythromycin or novobiocin were added 15 minutes later than the cholic acid derivatives. The samples were subjected to stationary incubation at 37° C. for 24 hours. Sample turbidity was determined by measuring absorption at 760 nm (HP 8453 UV-Visible Chemstation, Hewlett Packard). Additionally, an alliquot from each of the samples showing no measurable turbidity was subcultured on TSA plates (alliquots were diluted to provide fewer than 300 CFU). Colonies that grew on the subculture after overnight incubation were counted and the number of CFU/mL in the samples were calculated. The calculated values were compared to the number of CFU/mL in the original inoculum.
Ability to permeabilize outer membrane: Compounds 11, 106, and 108-114 (FIG. 1) were tested for antibiotic activity. They were also tested for the ability to permeabilize the outer membrane of Gram-negative bacteria, causing sensitization to hydrophobic antibiotics that cannot cross the outer membrane. The permeabilization of the outer membrane was measured using erythromycin and novobiocin.
Ester and amide side chains: Additional compounds, for example, compounds with amide and ester side chains, were tested.

E. coli (ATCC 25922) [1] = assay: MIC and MBC measurement with E. coli (ATCC 25922); format: cell-based, Escherichia coli; settings: Table 16; E. coli (ATTC 25922)
Description: (§2) General: Microorganisms. Reference strains were purchased from the American Type Culture Collection (Rockville, Md.) or Bactrol disks from Difeo Laboratories (Detroit, Mich.). The following specific ATCC strains were used: 10798 Escherichia coli, 25922 Escherichia coli, 13883 Klebsiella pneumoniae, 27853 Pseudomonas aeruginosa, 14028 Salmonella typhimurium, 29212 Enterococcus faecalis, 25923 Staphylococcus aureus, 19615 Streptococcus pyogenes, and 90028 Candida albicans. Bacterial strains were maintained on Mueller-Hinton agar plates, and Candida albicans was maintained on Sabouraud Dextrose agar plates.
(§3) Tryptic soy broth (TSB) was made by dissolving 27.5 grams of tryptic soy broth without dextrose (DIFCO Laboratories) in 1 liter of deionized water and sterilizing at 121° C. for 15 minutes. Solid agar (TSA) plates were made by dissolving 6.4 grams of tryptic soy broth and 12 grams of agar (purified grade, Fischer Scientific) in 800 mL of deionized water and sterilizing at 121° C. for 20 minutes. Aliquots (20 mL) of the homogeneous solution were then poured in sterile plastic petri dishes (100×15 mm, Fisher Scientific). Solutions of compounds were made by dissolving the HCl salt of the respective compound into an appropriate amount of deionized and sterilized water followed by microfiltration.
as §1, with “inoculum. […]” for “inoculum.”

E. coli (ATCC 25922) [2] = assay: Sensitization to erythromycin, E. coli (ATCC 25922); format: cell-based, Escherichia coli; settings: Table 16; E. coli
Protocol: FICs can be performed by checkerboard titrations of compounds in one dimension of a microtiter plate, and of antibiotics in the other dimension, for example. The FIC is calculated by looking at the impact of one antibiotic on the MIC of the other and vice versa. […] Preferably, an FIC of less than 0.5 is obtained for synergism. As used herein, FIC can be determined as follows:
as §1
Concentrations of 0.5, 1.0 or 3.0 μg/mL of these antibiotics were used, and the concentrations of the cholic acid derivatives required to inhibit bacterial growth of Gram-negative strains were determined.
(§4) Minimum inhibition concentrations (MIC) and minimum hemolytic concentrations (MHC) were measured as described in Li et al., Antimicrob. Agents. Chemother., 1999, 43, 1347.

[3] = tested on: Staphylococcus aureus ATCC 25923; assay: MIC and MBC measurement with Staphylococcus aureus ATCC 25923; format: cell-based; settings: Table 16; S. aureus (ATTC 25923)
Description: as §2, §3
as §1, with “inoculum. […]” for “inoculum.”

[4] = Protocol: as §4

| MIC (MIC^b) (E. coli (ATCC 25922) [1]) [µg/mL] | MIC (MIC^a) [3] [µg/mL] | SMILES | activity as a permeabilizer (Gram-negative bacteria) | c: concentration required to lower the MIC of erythromycin from 36 to 1 μg/mL (E. coli (ATCC 25922) [2]) [µg/mL] | MHC (minimum hemolytic concentration) [4] [µg/mL] |
| --- | --- | --- | --- | --- | --- |
| – | – | C[C@H](CCCO)[C@H]1CC[C@H]2[C@@H]3[C@H](N)C[C@@H]4C[C@H](N)CC[C@]4(C)[C@H]3C[C@H](N)[C@]12C [Compound 206] | ineffective as a permeabilizer | – | – |
| >100 | >100 | C[C@H](CCC(=O)O)[C@H]1CC[C@H]2[C@@H]3[C@H](OC(=O)CN)C[C@@H]4C[C@H](OC(=O)CN)CC[C@]4(C)[C@H]3C[C@H](OC(=O)CN)[C@]12C [Compound 327] | – | >100 | >100 |
| 1.0 (≈ 1.45 µM) | 1.8 (≈ 2.6 µM) | CCCCCCCCOC(=O)CC[C@@H](C)[C@H]1CC[C@H]2[C@@H]3[C@H](OC(=O)CN)C[C@@H]4C[C@H](OC(=O)CN)CC[C@]4(C)[C@H]3C[C@H](OC(=O)CN)[C@]12C [Compound 341] | – | 0.7 | – |
| 3.5 (≈ 4.51 µM) | 1.2 (≈ 1.55 µM) | CCCCCCCCOC(=O)CC[C@@H](C)[C@H]1CC[C@H]2[C@@H]3[C@H](OC(=O)CCCN)C[C@@H]4C[C@H](OC(=O)CCCN)CC[C@]4(C)[C@H]3C[C@H](OC(=O)CCCN)[C@]12C [Compound 343] | – | 3.5 | – |
